These are literature values, as cited in patent publication US20130225598A1, “Stabilized Amorphous Forms of Imatinib Mesylate” (Novartis AG, priority 2007, published 2013).

The conditions of the data set: at temperatures below 140 ° C.

Consider `CS(=O)(=O)O.Cc1ccc(NC(=O)c2ccc(CN3CCN(C)CC3)cc2)cc1Nc1nccc(-c2cccnc2)n1` [4-(4-methylpiperazin-1-ylmethyl)-N-[4-methyl-3-(4-(pyridin-3-yl)-pyrimidin-2-ylamino-)phenyl]-benzamide mesylate], for which the “thermodynamic stability relative to alpha crystal form” value is recorded as “thermodynamically more stable than the alpha form”.
